Data reported in patent US8680149B2, “1-amino-alkylcyclohexane derivatives for the treatment of mast cell mediated diseases” (Merz Pharma GmbH & Co. KGaA, priority 2008, dated 2014).

Assays:
[1] = tested on: human mast cell line HMC-1; assay: Mast cell degranulation in vitro: histamine concentration in culture medium by sandwich-ELISA; format: cell-based; conditions: for responsiveness of HMC-1 cells (degranulation) at low calcium: low calcium concentration; for inhibition of cholinergic agonist-induced mast cell degranulation (histamine concentration in culture supernatant): neramexane 10E-6M to 10E-16M added 5 minutes prior to cholinergic stimulus, histamine determined 10 minutes after addition; for induction of mast cell degranulation (histamine concentration in culture supernatant): calcium concentration elevated to 1 mM, histamine 10 minutes after addition
Experimental: The human mast cell line HMC-1 is obtained from J. H. Butterfield (Minnesota, USA) and cultured under standard conditions in RPMI Medium 1640 (GIBCO, Karlsruhe, Germany) at 37° C. For functional assays, the calcium concentration of the medium is adjusted to 1 mM.
The Mast cell degranulation is monitored by determination of histamine concentration in the culture medium using a sandwich-ELISA from IBL (Hamburg, Germany).Histamine concentration is determined in untreated cells, medium without cells, HMC-1 cells treated with calcimycin, (a calcium ionophore,used as positive control). Additional controls to check reagibilty of the cells are LPS (lipopolysaccharide) and PMA (phorbol 12-myristate 13-acetate). Histamine concentration is determined 10 minutes after addition of the respective substances. Nicotine and choline are used as stimulus for nAChR, muscarine as stimulus for mAChR, and a combination of acetylcholine and eserine (an acetylcholinesterase inhibitor) is used as pancholinergic stimulus. Neramexane is tested at concentrations ranging from 10E-6M to 10E-16M and is added to the culture medium 5 minutes prior to the respective cholinergic stimulus. All experiments are performed twice in quadruplicate.
Statistical analysis is performed using the Wilcoxon sum-of-ranks test (available on www.statpages.net).
In order to determine the sensitivity of mast cells towards cholinergic signals, the HMC-1 cell line cultured under standard conditions with either low or high calcium concentrations is used.

[2] = molecular target: α9α10 nicotinic Acetylcholine Receptor (Rattus norvegicus, UniProt P43144+Q9JLB5); conditions: cited from earlier work
[3] = neramexane at concentrations higher than 1 mM

α9α10 nicotinic Acetylcholine Receptor, sequence (P43144 26-479): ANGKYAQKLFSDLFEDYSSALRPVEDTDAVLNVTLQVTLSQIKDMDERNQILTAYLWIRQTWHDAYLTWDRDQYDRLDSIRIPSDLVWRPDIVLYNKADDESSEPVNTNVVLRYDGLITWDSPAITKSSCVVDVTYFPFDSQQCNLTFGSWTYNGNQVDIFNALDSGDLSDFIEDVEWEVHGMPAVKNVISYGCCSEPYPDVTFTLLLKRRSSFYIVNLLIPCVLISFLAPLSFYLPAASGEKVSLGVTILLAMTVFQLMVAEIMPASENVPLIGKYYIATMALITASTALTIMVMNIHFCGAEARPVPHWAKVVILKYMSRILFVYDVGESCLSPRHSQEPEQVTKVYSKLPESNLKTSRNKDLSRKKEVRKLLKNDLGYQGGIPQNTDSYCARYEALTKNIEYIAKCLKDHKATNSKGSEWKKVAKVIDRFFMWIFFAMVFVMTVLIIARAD
α9α10 nicotinic Acetylcholine Receptor, sequence (Q9JLB5 25-447): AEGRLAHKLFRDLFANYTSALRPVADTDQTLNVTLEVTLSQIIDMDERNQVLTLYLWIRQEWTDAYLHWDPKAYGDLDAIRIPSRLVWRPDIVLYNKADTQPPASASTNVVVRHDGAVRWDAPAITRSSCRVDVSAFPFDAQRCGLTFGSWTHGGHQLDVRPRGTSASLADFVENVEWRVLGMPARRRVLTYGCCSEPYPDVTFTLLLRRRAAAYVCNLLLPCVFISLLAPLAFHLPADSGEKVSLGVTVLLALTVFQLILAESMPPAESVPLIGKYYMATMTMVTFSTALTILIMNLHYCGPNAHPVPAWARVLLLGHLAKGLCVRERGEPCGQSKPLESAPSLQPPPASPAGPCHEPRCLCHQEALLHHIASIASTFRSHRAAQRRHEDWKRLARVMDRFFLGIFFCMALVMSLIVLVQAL

CNc1ccc2oc(C[C@H]3O[C@@]4(CC[C@H]3C)O[C@H]([C@H](C)C(=O)c3ccc[nH]3)[C@H](C)C[C@H]4C)nc2c1C(=O)O [calcimycine, calcimycin]
responsiveness of HMC-1 cells (degranulation) at low calcium [1]: unresponsive

CC1(C)CC(C)(C)CC(C)(N)C1 [Neramexane, 1-amino-1,3,3,5,5-pentamethylcyclohexane]
inhibition of cholinergic agonist-induced mast cell degranulation (histamine concentration in culture supernatant) ([1]; HMC-1 cells, calcium 1 mM): dose-dependent inhibitory effect
blockade of α9α10 nicotinic Acetylcholine Receptor [2]: blocker
mode of antagonism at α9α10 nicotinic Acetylcholine Receptor [2]: non-competitive antagonist
dependence of blockage on membrane potential [2, 3]: only slightly dependent on the membrane potential
effect on rate of desensitization [2, 3]: not to modify the rate of desensitization

CN1CCCC1c1cccnc1 (centres unmarked) [nicotine]
concentration sufficient to induce complete degranulation ([1]; HMC-1 cells, calcium 1 mM): Nanomolar concentrations
induction of mast cell degranulation (histamine concentration in culture supernatant) ([1]; HMC-1 cells): dose-dependently produce mast cell degranulation
responsiveness of HMC-1 cells (degranulation) at low calcium [1]: unresponsive

C[C@@H]1O[C@H](C[N+](C)(C)C)C[C@H]1O [muscarine]
induction of mast cell degranulation (histamine concentration in culture supernatant) ([1]; HMC-1 cells): No histamine liberation

CC1(C)CC(C)(C)CC(C)(N)C1.CS(=O)(=O)O [Neramexane-mesylate]
inhibition of cholinergic agonist-induced mast cell degranulation (histamine concentration in culture supernatant) ([1]; HMC-1 cells, calcium 1 mM): inhibits the observed effects in equimolar concentrations and, dose-dependently, even in lower concentrations than the respective agonist
